For orientation: GI50 means the concentration giving 50% growth inhibition. As usually defined, the TGI is the concentration giving total growth inhibition. The low end stands for more potent growth arrest, the high end for less potent growth arrest.

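Exposure lasted 48 hours, with cells grown in 96-well plates and compounds tested at five concentrations. GI50: concentration for 50% inhibition of growth. At the TGI there is no net growth.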 Bounds are passed on as bounds.

These results are taken from PubChem BioAssay (NCI).

Among the test systems are HOP-62 NSCLC; SF-539 CNS; RPMI-8226 leukemia; NCI-H522 lung; HT29 colon; OVCAR-8 ovarian; MALME-3M melanoma; M14 melanoma; MCF7 breast; SK-MEL-5 melanoma.
Holding throughout (experiment): DTP human tumour cell line panel, 48 h

On to `Nc1c(C(=O)c2cccc(C#CCN3CCOCC3)c2)cnn1-c1ccc(F)cc1`, for which the GI50 in the experiment with HOP-62 NSCLC is > 25 µM; in the experiment with SF-539 CNS it was > 25 µM; in the experiment with RPMI-8226 leukemia, > 20.8 µM; with NCI-H522 lung, > 10.9 µM; with HT29 colon it was 10.9 µM; in the experiment with OVCAR-8 ovarian, > 25 µM. For the same compound, the GI50 with MALME-3M melanoma was > 12.4 µM; with M14 melanoma, > 25 µM; in the experiment with MCF7 breast, 11.7 µM; with SK-MEL-5 melanoma it was 8.88 µM. The TGI is > 25 µM in the experiment on HOP-62 NSCLC; > 25 µM in the experiment on SF-539 CNS; > 25 µM with RPMI-8226 leukemia; > 23.6 µM in the experiment on NCI-H522 lung; > 25 µM with HT29 colon; > 25 µM in the experiment with OVCAR-8 ovarian. Further, the TGI with MALME-3M melanoma, in the experiment on M14 melanoma, in the experiment on MCF7 breast and in the experiment on SK-MEL-5 melanoma was > 25 µM each time.

Regarding `S=C=NCc1ccccc1`, the TGI was 11.7 µM in the experiment with HOP-62 NSCLC; 3.79 µM with SF-539 CNS; > 100 µM in the experiment with RPMI-8226 leukemia; 4.45 µM in the experiment with NCI-H522 lung; > 31.3 µM with HT29 colon; 9.31 µM with OVCAR-8 ovarian. For the same compound, the TGI in the experiment on MALME-3M melanoma was determined as 19.6 µM; with M14 melanoma, 5.81 µM; in the experiment with MCF7 breast it was 28.6 µM; with SK-MEL-5 melanoma it was 7.76 µM.

With `Nc1nc(N)c2c(ccc3nccc32)[nH]1`, the GI50 with HOP-62 NSCLC was 24.8 µM; in the experiment on SF-539 CNS, 3.26 µM; in the experiment with RPMI-8226 leukemia, 3.73 µM; in the experiment on NCI-H522 lung it was 4.88 µM; in the experiment on HT29 colon, 1.67 µM; in the experiment on OVCAR-8 ovarian it was 4.62 µM. Moreover, the GI50 is 5.28 µM in the experiment with MALME-3M melanoma, 1.92 µM with M14 melanoma, 2.26 µM in the experiment with MCF7 breast and 2.28 µM with SK-MEL-5 melanoma. In addition, the TGI in the experiment on HOP-62 NSCLC was > 100 µM; in the experiment on SF-539 CNS, > 86.1 µM; in the experiment on RPMI-8226 leukemia it was 21.7 µM; with NCI-H522 lung, 24.3 µM; in the experiment with HT29 colon, > 73.9 µM; with OVCAR-8 ovarian, > 100 µM. Also, the TGI in the experiment on MALME-3M melanoma is 33.6 µM; with M14 melanoma, > 79.8 µM; in the experiment with MCF7 breast, 15.5 µM; in the experiment with SK-MEL-5 melanoma, > 33.9 µM.

On to `Cc1cc2c3ccccc3ccc2[n+]2ccccc12`, for which the GI50 in the experiment on HOP-62 NSCLC was 2.58 µM; in the experiment with SF-539 CNS, 3.47 µM; in the experiment on RPMI-8226 leukemia, 8.7 µM; in the experiment on NCI-H522 lung, 2.6 µM; in the experiment with HT29 colon, 9.19 µM; in the experiment with OVCAR-8 ovarian, 2.43 µM. The GI50 is 0.657 µM in the experiment on MALME-3M melanoma, 6.53 µM in the experiment with M14 melanoma, 2.35 µM in the experiment with MCF7 breast and 1.63 µM in the experiment on SK-MEL-5 melanoma. Also, the TGI with HOP-62 NSCLC came out at 11.7 µM; in the experiment with SF-539 CNS, 17 µM; in the experiment on RPMI-8226 leukemia, 80.3 µM; in the experiment on NCI-H522 lung it was 13.1 µM; in the experiment with HT29 colon, 41.1 µM; in the experiment on OVCAR-8 ovarian, 21.9 µM. In addition, the total growth inhibition concentration (TGI) in the experiment with MALME-3M melanoma is 3.45 µM; with M14 melanoma, 22.8 µM; with MCF7 breast, > 38.8 µM; in the experiment on SK-MEL-5 melanoma, 3.78 µM.

On to `Nc1c(C(=O)c2cccc(CCC3(O)CCCC3)c2)cnn1-c1ccc(F)cc1`, for which the GI50 in the experiment on HOP-62 NSCLC is > 25 µM; with SF-539 CNS, 18.2 µM; with RPMI-8226 leukemia it was 9.23 µM; in the experiment with NCI-H522 lung, > 19.4 µM; in the experiment with HT29 colon it was 18.2 µM; in the experiment with OVCAR-8 ovarian, 11.4 µM. For the same compound, the GI50 is 7.88 µM in the experiment on MALME-3M melanoma, 14.9 µM in the experiment on M14 melanoma, 9.65 µM in the experiment with MCF7 breast and 4.78 µM with SK-MEL-5 melanoma. Also, the TGI in the experiment on HOP-62 NSCLC, in the experiment with SF-539 CNS, with RPMI-8226 leukemia, in the experiment with NCI-H522 lung, in the experiment on HT29 colon and in the experiment with OVCAR-8 ovarian was > 25 µM throughout. In addition, the total growth inhibition concentration (TGI) in the experiment with MALME-3M melanoma was > 25 µM; with M14 melanoma, > 25 µM; in the experiment with MCF7 breast it was > 25 µM; in the experiment on SK-MEL-5 melanoma it was 13.3 µM.

As for `CC1=CC2=C(C(N)=O)C(=O)OC2(C)C(c2ccccc2)C1` (configuration not stated), the TGI with HOP-62 NSCLC, in the experiment with SF-539 CNS, in the experiment on RPMI-8226 leukemia, in the experiment on NCI-H522 lung, with HT29 colon and with OVCAR-8 ovarian was > 100 µM in each case. Moreover, the TGI in the experiment on MALME-3M melanoma, with M14 melanoma and in the experiment with MCF7 breast was > 100 µM in each case.

On to `COc1ccc2c(c1)sc1nc(-c3ccccc3)c(-c3ccc(O)c(OC)c3)n12`, for which the GI50 in the experiment on HOP-62 NSCLC is 37.8 µM; in the experiment with SF-539 CNS it was 6.63 µM; in the experiment with NCI-H522 lung it was 15 µM; with HT29 colon, 3.56 µM; in the experiment with OVCAR-8 ovarian, 41.2 µM; in the experiment on MALME-3M melanoma it was > 100 µM. Further, the values for the GI50 in the experiment with M14 melanoma, in the experiment with MCF7 breast and in the experiment with SK-MEL-5 melanoma were 4.34 µM, 28.6 µM and 3.64 µM, respectively. The TGI in the experiment with HOP-62 NSCLC, with SF-539 CNS, with NCI-H522 lung, with HT29 colon, with OVCAR-8 ovarian and in the experiment on MALME-3M melanoma was > 100 µM in each case. Further, the TGI in the experiment with M14 melanoma, in the experiment with MCF7 breast and with SK-MEL-5 melanoma was > 100 µM throughout.

Consider `O=C1c2cc3c(cc2[C@@H]2[C@H]1c1ccc([N+](=O)[O-])cc1C(=O)N2CCCCl)OCO3`, for which the GI50 in the experiment on HOP-62 NSCLC was < 0.01 µM; in the experiment with SF-539 CNS it was < 0.01 µM; with RPMI-8226 leukemia, < 0.0171 µM; with NCI-H522 lung, < 0.01 µM; with HT29 colon, < 0.01 µM; with OVCAR-8 ovarian, < 0.01 µM. In addition, the GI50 in the experiment on M14 melanoma, with MCF7 breast and in the experiment with SK-MEL-5 melanoma was < 0.01 µM throughout. Moreover, the TGI in the experiment on RPMI-8226 leukemia was > 100 µM; with NCI-H522 lung, 9.64 µM; in the experiment with HT29 colon, > 100 µM; in the experiment on OVCAR-8 ovarian, > 100 µM; in the experiment on M14 melanoma, < 0.01 µM; in the experiment on SK-MEL-5 melanoma, < 0.01 µM.
